The values below are quoted from earlier work in paper PMC9780937 (Molecules, 2022).

The test system of series [1] is mice. As to conditions: chronic s.c., at effective antinociceptive doses (7.4 µmol/kg), ref 19 (suppl. ref 1); cited from earlier work.
The next series has as its system NPFF1R. Further details: method as in suppl. ref 1. The following applies: [35S]GTPγS binding assay; ref suppl. ref 1; cited from earlier work.
In series [2] the test system is mice. Further details: method as in suppl. ref 1. The following applies: acute s.c., at effective antinociceptive doses, ref suppl. ref 1; cited from earlier work.
The test system of series [3] is mice. Further details: method as in suppl. ref 1. The following applies: acute s.c., at effective antinociceptive doses, ref suppl. ref 1; cited from earlier work. The source holds these as a separate data set.
A further series concerns the target MOR. Further details: method as in suppl. ref 1. As to conditions: radioligand competitive binding; ref suppl. ref 1; read-out: Binding affinity Ki, MOR; cited from earlier work.
Series [4] relates to mice. The following applies: acute s.c., at effective antinociceptive doses (7.4 µmol/kg), ref 19 (suppl. ref 1); cited from earlier work.
In series [5] the test system is neuropeptide FF receptor (NPFFR). Further details: method as in PMID 29708942. As to conditions: in vitro; cited from earlier work.

SMILES strings stand for the structures. “Also recorded” adds a separate entry of the source.

For the molecule `Cc1cc(O)cc(C)c1C[C@H](N)C(=O)N[C@H](CCCNC(=N)N)C(=O)NC1Cc2ccccc2CN(CCC(=O)NC(CCCN2CCC(Cc3ccccc3)CC2)C(=O)N[C@@H](Cc2ccccc2)C(N)=O)C1=O` (stereo partly drawn) [KGFF09, H-Dmt-DArg-Aba-βAla-Bpa-Phe-NH2], in the series with mice [1], the “Opioid-induced hyperalgesia” value was “no and reduced side effects and reduced opioid-induced side effects”. Further, the “pA2, NPFF1R” value in the series on NPFF1R is given as 7.25. For the same molecule, the “Sedation/motor impairment” value with mice [2] is “yes”. For the same molecule, in the series on mice [3], the “Constipation” value was “yes”. Further, the Ki at MOR was 2.43 nM. Besides, the “Respiratory depression” value in the series with mice [4] was “less acute side effects; also recorded: reduced opioid-induced side effects”. Besides, the “Functional profile at NPFFR” value in series [5] was “NPFFR antagonist”.

Usually Ki stands for the dissociation constant of the complex between target and ligand, obtained from inhibition or displacement.
